{
  "source": "patent US9073982B2",
  "about": "“Targets for regulation of angiogenesis” (The University of North Carolina at Chapel Hill, priority 2008, dated 2015)",
  "key": {"HCAEC [1]": {"system": "HCAEC", "assay": "Scratch wound assay on HCAEC", "type": "cell-based, human", "settings": "Jak3 20 nM-200 pM", "method": "HCAEC were plated at 10,000 cells/well onto a 96 well plate and allowed to become confluent in EGM-2 with BulletKit growth supplements. The cells were quiesced in EGM-2 with 0.1% FBS without BulletKit growth supplements for 18 hours. The wound was formed using a 1 ml pipette tip. A 20 nM-200 pM dose curve of recombinant human Jak3 (Millipore, Temecula, Calif.) was added to the cells. Each concentration was performed in triplicate and the experiment was repeated three times with similar results. Migration distance was measured at 12 hours and then every 4 hours until wound closure in all wells. Data were recorded as percent of wound closed at each time point."}, "HCAEC [2]": {"system": "HCAEC", "assay": "Endothelial cell proliferation assay (MTT)", "type": "cell-based, human", "settings": "Jak3, 48 hours", "method": "HCAEC were seeded on a 96 well plate at a concentration of 2000 cells/well and allowed to proliferate for 24 hrs in EGM-2 with BulletKit growth supplements. The cells were then quiesced in EGM-2 with 0.1% FBS without BulletKit growth supplements for 18 hours. Media was replaced with fresh EGM-2 with BulletKit growth supplements and the cells were treated in triplicate with: PBS alone; recombinant murine VEGF (60 ng/mL); or Jak3 (at a concentration of 200 nM-200 pM). After 48 h, 10 μl of the colorimetric compound 3-(4,5-dimethylthiazol-2-yl)-2,5-diphenyl tetrazolium bromide (MTT) (5 mg/mL) was added to each well and allowed to incubate for 4 h at 37° C. All but 25 μl of media in each well was removed and 50 μl dimethyl sulfoxide (DMSO) was added. Following a 10 min incubation at 37° C., the A540 was measured using a microplate reader. A540 was converted to number of cells based on a standard curved created by seeding a 96-well plate with known concentrations of cells, as determined by hemocytometry, and measuring their A540 after 4 hrs incubation with MTT."}, "[3]": {"system": "Human coronary artery endothelial cells (HCAEC)", "assay": "Hypoxia-induced endothelial cell apoptosis assay (caspase 3)", "type": "cell-based", "settings": "Jak3 20 nM-200 pM, 36 hours hypoxia", "method": "Human coronary artery endothelial cells (HCAEC) were used for apoptosis assays because apoptosis could not be induced in the MEC cells. HCAECs were grown in 10-cm dishes (Becton Dickinson, Franklin Lakes, N.J.) with endothelial cell basal medium-2 (EGM-2) BulletKit media (Clonetics, San Diego, Calif.) until 80% confluent. Medium was then replaced with optimal medium according to different assays. The hypoxic condition was created by incubating HCAECs in EGM-2 media without BulletKit growth factors at 37° C. in a hypoxia chamber with an atmosphere of 5% CO2/95% N2. The oxygen level in the chamber was controlled to 1.0%. Apoptosis was determined by measuring the activity of cleaved caspase 3 by using a caspase-specific fluorogenic substrate according to the protocol for the Caspase 3 Assay Kit (Sigma). HCAECs were lysed after treatment with concentrations of SFRP2 (70 pM and 700 pM) for 36 h under hypoxia. […] The enzyme-catalyzed release of 7-amino-4-methyl coumarin (AMC) was measured by a fluorescence microplate reader.\nHCAEC were seeded onto a 96 well plate at 2,000 cells/well in EGM-2 with BulletKit growth supplements. […] Apoptosis was determined by measuring the activity of cleaved caspase 3 by using a caspase-specific fluorogenic substrate according to the protocol for the Apo-ONE® Homogeneous Caspase-3/7 Assay (Promega, Madison, Wis.). […]"}, "[4]": {"system": "chick chorioallantoic membrane", "assay": "Chick chorioallantoic membrane (CAM) assay", "type": "in vivo, chicken", "settings": "100 ng per disk, evaluated day 3 after disk placement", "method": "On day 4, the eggs were cracked into sterile Petri dishes and incubated at 99° F. in 3% CO2, 65% humidity. For application of drug onto the CAM, Whatman grade 1 filter paper was cut into circles with a 6 mm diameter paper punch and autoclaved. To decrease inflammatory effects of the disk, the discs were soaked in 1 ml of 3.0 mg/ml cortisone acetate in absolute ETOH and air dried for 60 min in a laminar flow hood. On day 8, 5 disks per egg were placed on the outer third of the CAM, 2-3 mm from a vessel. Control PBS 7 μl was added to the discs for the control CAMs, and SFRP2 100 ng/7 μl PBS was added to the disks for the treated CAMs (n=5 control disks and 5 SFRP2-treated disks). The CAMs were evaluated under a stereomicroscope on day 3 after disk placement. Pictures were taken with a Wild M-4 70 Macrosystem, and angiogenesis was quantified using Metamorph Software with an angiogenesis module.\nFertilized chickens eggs (NC State University Chicken Research Faint) were incubated at 100.4° F. in an egg turner (Model#1588 Genesis Hova-Bator, GQF Mfg. Co., Inc.) for 3 days. […] CAMs were evaluated under a stereomicroscope on day 3 after disk placement. Pictures were taken with a Wild M-4 70 Macrosystem and angiogenesis was quantified using Metamorph Software with an angiogenesis module."}, "HCAEC [5]": {"system": "HCAEC", "assay": "Tube formation assay on HCAEC", "type": "cell-based, human", "settings": "Jak3 20 nM-200 pM, 8 hours", "method": "ECMATRIX (Chemicon, Temecula, Calif.) was thawed, diluted, and solidified in a 96 well plate according to the manufacturer's instructions. HCAEC were seeded onto the matrix at 2,000 cells/well in 150 μl of EGM-2 with 5% FBS without BulletKit growth supplements. A 20 nM-200 pM dose curve of recombinant human Jak3 was added to the cells and the plates were returned to 37° C., 5% CO2 for 8 hours. Each concentration was performed in triplicate and the experiment was repeated three times with similar results. Wells were evaluated under a Nikon Eclipse TS100 microscope at 4× magnification and pictures were taken with a Nikon CoolPix 995 digital camera. Angiogenesis was quantified by counting branch points in the resulting image.\nThe role of STAT3 activation in Jak3-mediated tube formation was evaluated using a small peptide inhibitor of phosphorylated STAT3 (P-STAT3). ECMATRIX was solidified in wells of a 96 well plate. HCAEC were seeded onto the matrix at 2,000 cells/well in 150 μl of EGM-2 with 5% FBS without additional BulletKit growth supplements. Wells were treated in triplicate with: PBS alone, PBS+100 μM P-STAT3 inhibitor, 20 nM Jak3, or 20 nM Jak3+100 μM P-STAT3 inhibitor. Wells were photographed at 8 hours and tube formation was quantified by counting branch points in the resulting image."}},
  "data": [
    {"substance": "Jak3: recombinant human Jak3 (Millipore)", "values": [
      {"measurement": "endothelial cell migration (percent of wound closed)", "setting": "HCAEC [1]", "result": "increased endothelial cell migration"},
      {"measurement": "cell proliferation", "setting": "HCAEC [2]", "result": "increased cell proliferation"},
      {"measurement": "hypoxia induced endothelial cell apoptosis (caspase 3 activity)", "setting": "[3]", "result": "protected against hypoxia induced endothelial cell apoptosis"},
      {"measurement": "angiogenesis on the CAM (branch points, segments, tube area, tube length)", "setting": "[4]", "result": "induced angiogenesis on the CAM"},
      {"measurement": "endothelial tube formation (branch points)", "setting": "HCAEC [5]", "result": "induced by Jak3 in a concentration-dependent manner"}
    ]}
  ]
}
